Tests used:
[1] = biological target: RBD domain of S protein of SARS-CoV-2 (Severe acute respiratory syndrome coronavirus 2, UniProt P0DTC2); experiment: biochemical; type: binding
ACE2 = conditions: read-out: IC50 (ACE2 inhibitor); cited from earlier work
[2] = biological target: binding interactions between RBD and ACE2 (Homo sapiens, UniProt Q9BYF1); design: species or system SARS-CoV-2
Chain of binding interactions between RBD and ACE2 (Q9BYF1 whole entry, looked up): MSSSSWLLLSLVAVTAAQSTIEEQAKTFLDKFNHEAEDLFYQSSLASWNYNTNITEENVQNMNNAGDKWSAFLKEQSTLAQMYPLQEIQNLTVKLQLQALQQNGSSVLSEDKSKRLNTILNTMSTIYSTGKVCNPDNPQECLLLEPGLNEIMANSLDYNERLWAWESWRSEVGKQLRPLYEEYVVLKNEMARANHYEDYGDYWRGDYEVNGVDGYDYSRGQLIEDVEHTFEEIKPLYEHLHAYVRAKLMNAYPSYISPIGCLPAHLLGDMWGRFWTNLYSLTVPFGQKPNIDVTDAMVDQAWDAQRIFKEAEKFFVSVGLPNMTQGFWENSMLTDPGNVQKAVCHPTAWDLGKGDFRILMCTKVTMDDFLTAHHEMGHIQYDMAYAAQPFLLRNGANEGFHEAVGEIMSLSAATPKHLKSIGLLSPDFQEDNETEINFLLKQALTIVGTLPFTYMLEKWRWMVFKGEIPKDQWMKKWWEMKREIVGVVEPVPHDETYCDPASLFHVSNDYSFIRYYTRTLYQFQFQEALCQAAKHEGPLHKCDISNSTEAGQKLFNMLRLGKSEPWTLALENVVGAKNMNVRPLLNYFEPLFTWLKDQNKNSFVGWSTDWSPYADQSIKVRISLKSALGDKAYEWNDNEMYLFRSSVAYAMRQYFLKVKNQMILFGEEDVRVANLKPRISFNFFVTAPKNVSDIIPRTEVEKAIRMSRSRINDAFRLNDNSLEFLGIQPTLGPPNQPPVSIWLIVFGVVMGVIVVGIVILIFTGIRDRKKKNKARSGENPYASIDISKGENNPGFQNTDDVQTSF

Row | Structure (SMILES) | Kd [1] [µM] | IC50 (ACE2) [nM] | effect on the binding affinity between RBD and ACE2 [2]
1 | Nc1ncnc2c1ncn2[C@@H]1O[C@H](CO)C[C@H]1O [CDCP, Cordycepin] | 20.5 | – | –
2 | CC(C)C[C@H](N[C@@H](Cc1cncn1Cc1cc(Cl)cc(Cl)c1)C(=O)O)C(=O)O [MLN-4760] | – | 0.44 | negligible effect
3 | C=C[C@@H]1C2=CCOC(=O)C2=CO[C@H]1O[C@@H]1O[C@H](CO)[C@@H](O)[C@H](O)[C@H]1O [GTCP, Gentiopicrin] | 29.6 | – | –

Source: article PMC8334341 (Acta Pharmacologica Sinica, 2021)
